Converted amounts (≈) assume the structure as drawn. The source made the active and inactive calls. No cut-off for these calls is given here.
Assays:
BC1 cell line [1] = assay: Cytotoxic activity against human breast cancer cells of BC-1 cell lines; format: functional, cell-based
KB [2] = assay: Cytotoxic activity against human epidermoid carcinoma cells of KB cell lines in mouth; format: functional, cell-based
[3] = tested on: Mycobacterium tuberculosis; assay: Antimycobacterial activity was assessed against Mycobacterium tuberculosis H37Ra using theMicroplate Alamar Blue Assay (MABA); NA means inactive at 200 ug/mL; format: functional, organism-based
Plasmodium falciparum [4] = assay: Antimalarial activity against multidrug-resistant Plasmodium falciparum K1; format: functional, organism-based
BC1 cell line [5] = assay: Cytotoxic activity against human breast cancer cells of BC-1 cell lines; NA means inactive at 20 ug/mL; format: functional, cell-based
KB [6] = assay: Cytotoxic activity against human epidermoid carcinoma cells of KB cell lines in mouth; NA means inactive at 20 ug/mL; format: functional, cell-based
[7] = tested on: Mycobacterium tuberculosis; assay: Antimycobacterial activity was assessed against Mycobacterium tuberculosis H37Ra using theMicroplate Alamar Blue Assay (MABA); format: functional
Plasmodium falciparum [8] = assay: Antimalarial activity against multidrug-resistant Plasmodium falciparum K1; Not active at 20 ug/mL; format: functional, organism-based

In the case of `C[C@H]1Cc2c(C(=O)O)ccc(O)c2C(=O)O1`, the IC50 (BC1 cell line [1]) is reported as 3 µg/mL (≈ 13.5 µM), the IC50 (KB [2]) is reported as 3 µg/mL (≈ 13.5 µM) and the MIC [3] is reported as “inactive”. The IC50 (Plasmodium falciparum [4]) was 4 µg/mL (≈ 18 µM).
In the case of `C/C(=C\[C@H](O)[C@H](O)[C@H](C)C1=CC[C@@]2(C)C[C@@H]3[C@H](C)CC[C@@H]3/C(C(=O)O)=C\C[C@H]12)C(=O)O`, the IC50 (BC1 cell line [5]) is reported as “Not Active”, the IC50 (KB [6]) is reported as “Not Active” and the MIC [7] is reported as 200 µg/mL (≈ 462 µM). The IC50 (Plasmodium falciparum [4]) was 13 µg/mL (≈ 30.1 µM).
With `C/C(=C\C1OC(C)(C)O[C@@H]1[C@H](C)C1=CC[C@@]2(C)C[C@@H]3[C@H](C)CC[C@@H]3/C(C(=O)O)=C\C[C@H]12)C(=O)O` (some centres undefined) the IC50 (BC1 cell line [5]) was “Not Active”, the IC50 (KB [6]) was “Not Active” and the MIC [7] was 200 µg/mL (≈ 423 µM). It also gave an IC50 (Plasmodium falciparum [4]) of 19 µg/mL (≈ 40.2 µM).
For `CC(=O)O[C@@H]1/C=C/[C@@](C)(O)C(=O)[C@@H](C)C/C=C/[C@H]2[C@@H]3O[C@]3(C)[C@@H](C)[C@H]3[C@H](Cc4ccccc4)NC(=O)[C@@]312` [CYTOCHALASIN Q], the IC50 (BC1 cell line [1]) was 1 µg/mL (≈ 1.97 µM), the IC50 (KB [2]) was 3 µg/mL (≈ 5.91 µM) and the MIC [3] was “inactive”. It also gave an IC50 (Plasmodium falciparum [4]) of 17 µg/mL (≈ 33.5 µM).
`CCCCC/C=C(/C(=O)O)C(C)C(=O)OC` (centres undefined) was tested, and the IC50 (BC1 cell line [5]) was “Not Active”, the IC50 (KB [6]) was “Not Active” and the MIC [3] was “inactive”. The IC50 (Plasmodium falciparum [8]) was “Not Active”.
`CCCCC/C=C(/C(=O)O)C(C)C(=O)O` (centres undefined) was tested, and the IC50 (BC1 cell line [1]) was 5 µg/mL (≈ 23.3 µM), the IC50 (KB [2]) was 13 µg/mL (≈ 60.7 µM) and the MIC [3] was “inactive”. For the same compound, the IC50 (Plasmodium falciparum [8]) was “Not Active”.

Source: ChEMBL document CHEMBL1133881, “Antimalarial halorosellinic acid from the marine fungus Halorosellinia oceanica” (Bioorg Med Chem Lett, 2001)
